Reference: patent publication US20260216108A1, “PHARMACEUTICAL COMPOSITION CONTAINING A MITOPHAGY INDUCER” (HANGZHOU PHECDAMED CO., LTD., priority 2023, published 2026)

Key:
Assay type in all cases: physicochemical
[1] = Compatibility test of API and auxiliary materials: content by HPLC; conditions: for Content: in % (unit assumed)
Experimental: (§1) 4. Using HPLC method to detect the content of the sample and relevant substances.
(§2) The parameters of the HPLC method for the detection of the content and relevant substances are detailed in Table 2 below.
(§3) Placing the samples under experimental conditions of high temperature (60° C.), high humidity (92.5% RH), acceleration (40° C./75% RH) and illumination (visible light 5500 Lux±500 Lux, near ultraviolet light 85 μw/cm2), […] Submitting the samples for relevant indicator testing (test items include appearance, hygroscopic weight gain, content and relevant substances), and comparing the test results with the control samples (raw material).

[2] = Compatibility test of API and auxiliary materials: appearance; conditions: opened
Description: The experimental steps are as follows:
1. Taking out the sample according to the sampling time point set in the raw material and auxiliary material compatibility scheme (see Table 1).
2. Recording the appearance of the sample taken out. Appearance abnormalities include: (1) caking, (2) liquefaction, (3) discoloration.
The commonly used auxiliary materials for oral solid preparations are selected to mix with TJ0113 raw material in different proportions, placed under different conditions, and taken out at different time points respectively to judge the compatibility of the raw and auxiliary materials by using appearance, hygroscopic weight gain, content and relevant substances as indicators. According to the auxiliary material manual, the auxiliary materials used are commonly used auxiliary materials for oral solid preparations, and have been included in the current edition of the Chinese Pharmacopoeia, each auxiliary material has a stable nature. In order to objectively evaluate the compatibility of raw material and auxiliary materials used, the compatibility test was conducted on the raw material and each auxiliary material.
The ratio of the raw and auxiliary materials is set according to the “Basic Technical Guidance Principles for Research on Chemical Drug Preparations” and the preparation specifications, the auxiliary materials with a larger amount (such as lactose, microcrystalline cellulose) are mixed according to the ratio of main drug:diluent=1:5; the auxiliary materials with a moderate amount (such as croscarmellose sodium) are mixed according to the ratio of main drug:disintegrant=1:1; the auxiliary materials with a smaller amount (such as magnesium stearate) are mixed according to the ratio of main drug:lubricant=10:1. The manufacturer information and the ratio of raw and auxiliary materials for the compatibility experiment are shown in Table 1 below: […]

[3] = Compatibility test of API and auxiliary materials: relevant substances (impurities) by HPLC; conditions: opened
Experimental: as §1, §2, §3

O=C(O)C[S+]([O-])c1cc(NS(=O)(=O)c2ccc(Br)cc2)c2ccccc2c1O (stereo not drawn) [API]
Content ([1]; 40° C./75% RH (opened), 10 d): 98.9 | Content ([1]; 40° C./75% RH (opened), 30 d): 97.3 | Content ([1]; 60° C. (opened), 10 d): 100.1 | Content ([1]; 60° C. (opened), 30 d): 101.4 | Change of content ([1]; 60° C., 92.5% RH, 40° C./75% RH opened, 10 days illumination): did not change significantly | Content ([1]; 92.5% RH (opened), 10 d): 97.8 | Content ([1]; 92.5% RH (opened), 30 d): 99.9 | Content ([1]; Illumination (opened), 10 d): 100.8 | Content ([1]; Initial): 99.7 | Appearance ([2]; 40° C./75% RH, 30 d): gray powder | Appearance ([2]; 92.5% RH, 30 d): gray powder | Appearance ([2]; illumination, 30 days): turned into red, and their lower layers did not change color | % Impurities RRT0.37 ([3]; 40° C./75% RH, 0 d): <0.05% | % Impurities RRT0.46 ([3]; 40° C./75% RH, 0 d): <0.05% | % Impurities RRT0.89 ([3]; 40° C./75% RH, 0 d): 0.08% | % Impurities RRT1.10 ([3]; 40° C./75% RH, 0 d): <0.05% | % Impurities RRT1.16 ([3]; 40° C./75% RH, 0 d): 0.88% | % Impurities RRT1.20 ([3]; 40° C./75% RH, 0 d): 0.09% | % Impurities RRT1.24 ([3]; 40° C./75% RH, 0 d): <0.05% | % Impurities RRT1.29 ([3]; 40° C./75% RH, 0 d): 0.14% | % Impurities RRT1.33 ([3]; 40° C./75% RH, 0 d): 0.10% | % Impurities RRT1.37 ([3]; 40° C./75% RH, 0 d): 0.07% | % Impurities RRT1.41 ([3]; 40° C./75% RH, 0 d): <0.05% | % Impurities RRT1.43 ([3]; 40° C./75% RH, 0 d): <0.05% | % Impurities RRT1.73 ([3]; 40° C./75% RH, 0 d): <0.05% | % Impurities RRT1.74 ([3]; 40° C./75% RH, 0 d): 0.05% | % Impurities Total ([3]; 40° C./75% RH, 0 d): 1.41% | % Impurities RRT0.37 ([3]; 40° C./75% RH, 10 d): <0.05% | % Impurities RRT0.46 ([3]; 40° C./75% RH, 10 d): 0.11% | % Impurities RRT0.89 ([3]; 40° C./75% RH, 10 d): 0.06% | % Impurities RRT1.10 ([3]; 40° C./75% RH, 10 d): <0.05% | % Impurities RRT1.16 ([3]; 40° C./75% RH, 10 d): 1.23% | % Impurities RRT1.20 ([3]; 40° C./75% RH, 10 d): 0.06% | % Impurities RRT1.24 ([3]; 40° C./75% RH, 10 d): <0.05% | % Impurities RRT1.29 ([3]; 40° C./75% RH, 10 d): 0.08% | % Impurities RRT1.33 ([3]; 40° C./75% RH, 10 d): 0.07% | % Impurities RRT1.37 ([3]; 40° C./75% RH, 10 d): 0.05% | % Impurities RRT1.41 ([3]; 40° C./75% RH, 10 d): 0.09% | % Impurities RRT1.43 ([3]; 40° C./75% RH, 10 d): 0.07% | % Impurities RRT1.54 ([3]; 40° C./75% RH, 10 d): 0.06% | % Impurities RRT1.63 ([3]; 40° C./75% RH, 10 d): 0.21% | % Impurities RRT1.65/1.70 ([3]; 40° C./75% RH, 10 d): <0.05% | % Impurities RRT1.73 ([3]; 40° C./75% RH, 10 d): 0.59% | % Impurities RRT1.74 ([3]; 40° C./75% RH, 10 d): 0.06% | % Impurities Total ([3]; 40° C./75% RH, 10 d): 2.74% | % Impurities RRT0.46 ([3]; 40° C./75% RH, 30 d): 0.20% | % Impurities RRT0.89 ([3]; 40° C./75% RH, 30 d): 0.08% | % Impurities RRT1.10 ([3]; 40° C./75% RH, 30 d): <0.05% | % Impurities RRT1.16 ([3]; 40° C./75% RH, 30 d): 1.18% | % Impurities RRT1.20 ([3]; 40° C./75% RH, 30 d): 0.05% | % Impurities RRT1.24 ([3]; 40° C./75% RH, 30 d): <0.05% | % Impurities RRT1.29 ([3]; 40° C./75% RH, 30 d): 0.14% | % Impurities RRT1.33 ([3]; 40° C./75% RH, 30 d): 0.07% | % Impurities RRT1.37 ([3]; 40° C./75% RH, 30 d): 0.08% | % Impurities RRT1.41 ([3]; 40° C./75% RH, 30 d): 0.08% | % Impurities RRT1.43 ([3]; 40° C./75% RH, 30 d): 0.07% | % Impurities RRT1.54 ([3]; 40° C./75% RH, 30 d): <0.05% | % Impurities RRT1.63 ([3]; 40° C./75% RH, 30 d): 0.24% | % Impurities RRT1.65/1.70 ([3]; 40° C./75% RH, 30 d): <0.05% | % Impurities RRT1.73 ([3]; 40° C./75% RH, 30 d): 0.74% | % Impurities RRT1.74 ([3]; 40° C./75% RH, 30 d): 0.08% | % Impurities Total ([3]; 40° C./75% RH, 30 d): 3.01% | % Impurities RRT0.46 ([3]; 60° C., 0 d): <0.05% | % Impurities RRT0.89 ([3]; 60° C., 0 d): 0.08% | % Impurities RRT1.16 ([3]; 60° C., 0 d): 0.88% | % Impurities RRT1.20 ([3]; 60° C., 0 d): 0.09% | % Impurities RRT1.29 ([3]; 60° C., 0 d): 0.14% | % Impurities RRT1.33 ([3]; 60° C., 0 d): 0.10% | % Impurities RRT1.37 ([3]; 60° C., 0 d): 0.07% | % Impurities RRT1.41 ([3]; 60° C., 0 d): <0.05% | % Impurities RRT1.73 ([3]; 60° C., 0 d): <0.05% | % Impurities RRT1.74 ([3]; 60° C., 0 d): 0.05% | % Impurities Total ([3]; 60° C., 0 d): 1.41% | % Impurities RRT0.46 ([3]; 60° C., 10 d): <0.05% | % Impurities RRT0.89 ([3]; 60° C., 10 d): 0.08% | % Impurities RRT1.16 ([3]; 60° C., 10 d): 0.87% | % Impurities RRT1.20 ([3]; 60° C., 10 d): 0.07% | % Impurities RRT1.29 ([3]; 60° C., 10 d): 0.17% | % Impurities RRT1.33 ([3]; 60° C., 10 d): 0.08% | % Impurities RRT1.37 ([3]; 60° C., 10 d): 0.06% | % Impurities RRT1.41 ([3]; 60° C., 10 d): <0.05% | % Impurities RRT1.73 ([3]; 60° C., 10 d): <0.05% | % Impurities RRT1.74 ([3]; 60° C., 10 d): 0.07% | % Impurities Total ([3]; 60° C., 10 d): 1.40% | % Impurities RRT0.46 ([3]; 60° C., 30 d): <0.05% | % Impurities RRT0.89 ([3]; 60° C., 30 d): 0.07% | % Impurities RRT1.16 ([3]; 60° C., 30 d): 0.87%
